Patent US11427567B2, “Imidazolyl pyrimidinylamine compounds as CDK2 inhibitors” (Incyte Corporation, priority 2019, dated 2022)

The compounds below were run against CDK2/Cyclin E1 (Homo sapiens (Human), UniProt P24941) (assay: CDK2/Cyclin E1 HTRF enzyme activity assay (Example A)). Details: 1 mM ATP.
Format: biochemical
Procedure: Assays were conducted in white 384-well polystyrene plates in a final reaction volume of 8 μL. […] HTRF signals were read after 1 hour at room temperature on a PHERAstar FS plate reader (BMG Labtech). Data was analyzed with IDBS XLFit and GraphPad Prism 5.0 software using a three or four parameter dose response curve to determine IC50 for each compound.

IC50, ≤ 50 nM:
CS(=O)(=O)N1CCC(Nc2ncc(C(F)(F)F)c(-c3cn(-c4ccnc(C#N)c4Cl)cn3)n2)CC1 [Example 307, 3-Chloro-4-(4-(2-((1-(methylsulfonyl)piperidin-4-yl)amino)-5-(trifluoromethyl)pyrimidin-4-yl)-1H-imidazol-1-yl)picolinonitrile]
COc1ccc(-n2cnc(-c3nc(N[C@H]4CCN(S(C)(=O)=O)C[C@H]4F)ncc3C(F)(F)F)c2)c(C#N)n1 [Example 52, 3-(4-(2-(((3R,4S)-3-Fluoro-1-(methylsulfonyl)piperidin-4-yl)amino)-5-(trifluoromethyl)pyrimidin-4-yl)-1H-imidazol-1-yl)-6-methoxypicolinonitrile]
Cn1ncnc1-c1ccc(-n2cnc(-c3nc(NC4CCN(S(C)(=O)=O)CC4)ncc3C(F)(F)F)c2)c(C#N)c1 [Example 125, 5-(1-Methyl-1H-1,2,4-triazol-5-yl)-2-(4-(2-((1-(methylsulfonyl)piperidin-4-yl)amino)-5-(trifluoromethyl)pyrimidin-4-yl)-1H-imidazol-1-yl)benzonitrile]
CCc1ccc(-n2cnc(-c3nc(NC4CCN(S(C)(=O)=O)CC4)ncc3C(F)(F)F)c2)c(C#N)n1 [Example 41, 6-Ethyl-3-(4-(2-((1-(methylsulfonyl)piperidin-4-yl)amino)-5-(trifluoromethyl)pyrimidin-4-yl)-1H-imidazol-1-yl)picolinonitrile]
Cc1nc(-c2nc(NC3CCN(S(C)(=O)=O)CC3)ncc2C(F)(F)F)cn1-c1ccc(N2CCN(C)C(=O)C2)cc1F [Example 108, 4-(3-Fluoro-4-(2-methyl-4-(2-((1-(methylsulfonyl)-piperidin-4-yl)-amino)-5-(trifluoro-methyl)pyrimidin-4-yl)-1H-imidazol-1-yl)phenyl)-1-methylpiperazin-2-one]
Cc1nc(C#N)ccc1-n1cnc(-c2nc(N[C@H]3CCN(S(C)(=O)=O)C[C@H]3F)ncc2C(F)(F)F)c1 [Example 49, 5-(4-(2-(((3R,4S)-3-Fluoro-1-(methylsulfonyl)piperidin-4-yl)amino)-5-(trifluoromethyl)pyrimidin-4-yl)-1H-imidazol-1-yl)-6-methylpicolinonitrile]
CC(c1cccc(-n2cnc(-c3nc(NC4CCN(S(C)(=O)=O)CC4)ncc3C(F)(F)F)c2)c1Cl)N1CCC1 (stereo not drawn) [Example 469, 4-(1-(3-(1-(Azetidin-1-yl)ethyl)-2-chlorophenyl)-1H-imidazol-4-yl)-N-(1-(methylsulfonyl)piperidin-4-yl)-5-(trifluoromethyl)pyrimidin-2-amine]
CC(C)NCc1ccc(-n2cnc(-c3nc(N[C@@H]4CCN(S(C)(=O)=O)C[C@H]4F)ncc3C(F)(F)F)c2)c(Cl)c1 [Example 400, 4-(1-(2-Chloro-4-((isopropylamino)methyl)phenyl)-1H-imidazol-4-yl)-N-((3R,4R)-3-fluoro-1-(methylsulfonyl)piperidin-4-yl)-5-(trifluoromethyl)pyrimidin-2-amine]
CS(=O)(=O)N1CC[C@H](Nc2ncc(C(F)(F)F)c(-c3cn(-c4cccc(C#N)c4C(F)(F)F)cn3)n2)[C@H](F)C1 [Example 69, 3-(4-(2-(((3R,4S)-3-Fluoro-1-(methylsulfonyl)piperidin-4-yl)amino)-5-(trifluoromethyl)pyrimidin-4-yl)-1H-imidazol-1-yl)-2-(trifluoromethyl)benzonitrile]
CNCc1ccc(-n2cnc(-c3nc(NC4CCN(S(C)(=O)=O)CC4)ncc3Cl)c2)c(Cl)c1 [Example 227, 5-Chloro-4-(1-(2-chloro-4-((methyl-amino)methyl)-phenyl)-1H-imidazol-4-yl)-N-(1-(methyl-sulfonyl)piperidin-4-yl)pyrimidin-2-amine]
CS(=O)(=O)N1CCC(Nc2ncc(C(F)(F)F)c(-c3cn(-c4c(F)cc(CN5CCC5)cc4Cl)cn3)n2)CC1 [Example 395, 4-(1-(4-(Azetidin-1-ylmethyl)-2-chloro-6-fluorophenyl)-1H-imidazol-4-yl)-N-(1-(methyslulfonyl)piperidin-4-yl)-5-(trifluoromethyl)pyrimidin-2-amine]
CS(=O)(=O)N1CCC(Nc2ncc(C(F)(F)F)c(-c3cn(-c4ccccc4Br)cn3)n2)CC1 [Example 442, 4-(1-(2-Bromophenyl)-1H-imidazol-4-yl)-N-(1-(methylsulfonyl)piperidin-4-yl)-5-(trifluoromethyl)pyrimidin-2-amine]
CS(=O)(=O)N1CCC(Nc2ncc(C(F)(F)F)c(-c3cn(-c4ccc(CN5CCC5)cc4C(F)(F)F)cn3)n2)CC1 [Example 251, 4-(1-(4-(Azetidin-1-ylmethyl)-2-(trifluoromethyl)phenyl)-1H-imidazol-4-yl)-N-(1-(methylsulfonyl)piperidin-4-yl)-5-(trifluoromethyl)pyrimidin-2-amine]
CS(=O)(=O)N1CCC(Nc2ncc(C(F)(F)F)c(-c3ncn(-c4ccc(C#N)cc4Cl)c3Cl)n2)CC1 [Example 170, 3-Chloro-4-(5-chloro-4-(2-((1-(methylsulfonyl)piperidin-4-yl)amino)-5-(trifluoromethyl)pyrimidin-4-yl)-1H-imidazol-1-yl)benzonitrile]
CCN(C)Cc1ccc(-n2cnc(-c3nc(NC4CCN(S(C)(=O)=O)CC4)ncc3C(F)(F)F)c2)c(Cl)c1 [Example 192]
Cc1c(-n2cnc(-c3nc(NC4CCN(S(C)(=O)=O)CC4)ncc3C(F)(F)F)c2)ccc2nccnc12 [Example 166, 4-(1-(5-Methylquinoxalin-6-yl)-1H-imidazol-4-yl)-N-(1-(methylsulfonyl)piperidin-4-yl)-5-(trifluoromethyl)pyrimidin-2-amine]
CN1CCN(Cc2cc(F)c(-n3cnc(-c4nc(NC5CCN(S(C)(=O)=O)CC5)ncc4C(F)(F)F)c3)c(F)c2)CC1 [Example 352, 4-(1-(2,6-Difluoro-4-((4-methylpiperazin-1-yl)methyl)phenyl)-1H-imidazol-4-yl)-N-(1-(methylsulfonyl)piperidin-4-yl)-5-(trifluoromethyl)pyrimidin-2-amine]
CC(C)(O)CCOc1ccc(-n2cnc(-c3nc(NC4CCN(S(C)(=O)=O)CC4)ncc3C(F)(F)F)c2)c(C(F)(F)F)n1 [Example 71, 2-Methyl-4-((5-(4-(2-((1-(methylsulfonyl)piperidin-4-yl)amino)-5-(trifluoromethyl)pyrimidin-4-yl)-1H-imidazol-1-yl)-6-(trifluoromethyl)pyridin-2-yl)oxy)butan-2-ol]
CC(C)NCc1ccc(-n2cnc(-c3nc(NC4CCN(S(C)(=O)=O)CC4)ncc3C(F)(F)F)c2)c(C#N)c1 [Example 340, 5-((Isopropylamino)methyl)-2-(4-(2-((1-(methylsulfonyl)piperidin-4-yl)amino)-5-(trifluoromethyl)pyrimidin-4-yl)-1H-imidazol-1-yl)benzonitrile]
Cc1nc(-c2nc(NC3CCN(S(C)(=O)=O)CC3)ncc2C(F)(F)F)cn1-c1ccc(-c2cnnn2C)cc1F [Example 128, 4-(1-(2-Fluoro-4-(1-methyl-1H-1,2,3-triazol-5-yl)phenyl)-2-methyl-1H-imidazol-4-yl)-N-(1-(methylsulfonyl)piperidin-4-yl)-5-(trifluoromethyl)pyrimidin-2-amine]
CS(=O)(=O)N1CCC(Nc2ncc(C(F)(F)F)c(-c3cn(-c4ccnc(N5CCOCC5)c4C#N)cn3)n2)CC1 [Example 317, 4-(4-(2-((1-(Methylsulfonyl)piperidin-4-yl)amino)-5-(trifluoromethyl)pyrimidin-4-yl)-1H-imidazol-1-yl)-2-morpholinonicotinonitrile]
CS(=O)(=O)N1CCC(Nc2ncc(C(F)(F)F)c(-c3cn(-c4ccc(CN5CC6CC5CO6)cc4Cl)cn3)n2)CC1 (stereo not drawn) [Example 213]
Cc1cc(CN(C)C)ccc1-n1cnc(-c2nc(NC3CCN(S(C)(=O)=O)CC3)ncc2C(F)(F)F)c1 [Example 271, 4-(1-(4-((Dimethylamino)methyl)-2-methylphenyl)-1H-imidazol-4-yl)-N-(1-(methylsulfonyl)piperidin-4-yl)-5-(trifluoromethyl)pyrimidin-2-amine]
Cn1cc(S(=O)(=O)N2CC[C@@H](Nc3ncc(C(F)(F)F)c(-c4cn(CC(C)(C)O)cn4)n3)[C@H](F)C2)cn1 [Example 336, 1-(4-(2-(((3R,4R)-3-Fluoro-1-((1-methyl-1H-pyrazol-4-yl)sulfonyl)piperidin-4-yl)amino)-5-(trifluoromethyl)pyrimidin-4-yl)-1H-imidazol-1-yl)-2-methylpropan-2-ol]
Cc1ccc(-n2cnc(-c3nc(N[C@H]4CCN(S(=O)(=O)c5ccn(C)n5)C[C@H]4C)ncc3C(F)(F)F)c2)c(C#N)n1 [Example 154, 6-Methyl-3-(4-(2-(((3R,4S)-3-methyl-1-((1-methyl-1H-pyrazol-3-yl)-sulfonyl)piperidin-4-yl)amino)-5-(trifluoromethyl)-pyrimidin-4-yl)-1H-imidazol-1-yl)picolinonitrile]
CC(=O)N(C)Cc1ccc(-n2cnc(-c3nc(NC4CCN(S(C)(=O)=O)CC4)ncc3C(F)(F)F)c2)c(Cl)c1 [Example 174, N-(3-Chloro-4-(4-(2-((1-(methylsulfonyl)piperidin-4-yl)amino)-5-(trifluoromethyl)pyrimidin-4-yl)-1H-imidazol-1-yl)benzyl)-N-methylacetamide]
CS(=O)(=O)N1CCC(Nc2ncc(C#N)c(-c3cn(-c4ccc(C#N)cc4Cl)cn3)n2)CC1 [Example 28, 4-(1-(2-Chloro-4-cyanophenyl)-1H-imidazol-4-yl)-2-((1-(methylsulfonyl)piperidin-4-yl)amino)pyrimidine-5-carbonitrile]
